Patent US20240368135A1 (VERTEX PHARMACEUTICALS INCORPORATED, priority 2021, published 2024)

Target: human NaV 1.8 (Homo sapiens, UniProt Q9Y5Y9)
Test: E-VIPR assay detecting and measuring NaV inhibition properties
Type: cell-based
Conditions: HEK cells expressing truncated human NaV 1.8; no human serum; read-out: IC50 in the E-VIPR Assay
From the text: Sodium ion channels are voltage-dependent proteins that can be activated by inducing membrane voltage changes by applying electric fields. The electrical stimulation instrument and methods of use, referred to as E-VIPR, are described in International Publication No. WO 2002/008748 A3 and C.-J. Huang et al. Characterization of voltage-gated sodium channel blockers by electrical stimulation and fluorescence detection of membrane potential, 24 Nature Biotech. 439-46 (2006), both of which are incorporated by reference in their entirety. The instrument comprises a microtiter plate handler, an optical system for exciting the coumarin dye while simultaneously recording the coumarin and oxonol emissions, a waveform generator, a current- or voltage-controlled amplifier, and parallel electrode pairs that are inserted into assay plate wells. Under integrated computer control, this instrument passes user-programmed electrical stimulus protocols to cells within the wells of the microtiter plate.
16-20 hours prior to running the assay on E-VIPR, HEK cells expressing a truncated form of human NaV 1.8 with full channel activity were seeded into microtiter 384-well plates, pre-coated with matrigel, at a density of 25,000 cells per well. 2.5-5% KIR2.1 Bacmam virus was added to the final cell suspension before seeding into cell plates. HEK cells were grown in Dulbecco's Modified Eagle's Medium (DMEM) supplemented with 10% FBS (Fetal Bovine Serum, qualified; Sigma #F4135), 1% NEAA (Non-Essential Amino Acids, Gibco #11140), 1% HEPES (Gibco #15630), 1% Pen-Strep (Penicillin-Streptomycin; Gibco #15140) and 5 μg/ml Blasticidin (Gibco #R210-01). Cells were expanded in vented cap cell culture flasks, with 90-95% humidity and 5% CO2.
Human Serum (HS, Millipore #S1P1-01KL, or Sigma SLBR5469V and SLBR5470V as a 50%/50% mixture, for 25% assay final concentration) • Bath 1 Buffer: • Sodium Chloride 160 mM (9.35 g/L), Potassium Chloride, 4.5 mM (0.335 g/L), Glucose 10 mM (1.8 g/L), Magnesium Chloride (Anhydrous) 1 mM (0.095 g/L), Calcium Chloride 2 mM (0.222 g/L), HEPES 10 mM (2.38 g/L) in water. • Na/TMA C1 Bath 1 Buffer: • Sodium Chloride 96 mM (5.61 g/L), Potassium Chloride 4.5 mM (0.335 g/L), Tetramethylammonium (TMA)-Cl 64 mM (7.01 g/L), Glucose 10 mM (1.8 g/L), Magnesium Chloride (Anhydrous) 1 mM (0.095 g/L), Calcium Chloride 2 mM (0.222 g/L) HEPES 10 mM (2.38 g/L) in water. • Hexyl Dye Solution (2× concentration): • Bath 1 Buffer containing 0.5% P-cyclodextrin (made fresh prior to each use, Sigma #C4767), 8 μM CC2-DMPE and 2 μM DiSBAC6(3). The solution was made by adding 10% Pluronic F127 stock equal to combined volumes of CC2-DMPE and DiSBAC6(3). The order of preparation was first mix Pluronic and CC2-DMPE, then add DiSBAC6(3), then while vortexing add Bath 1/p-Cyclodextrin.
Compound Loading Buffer (2× concentration): Na/TMA C1 Bath1 Buffer containing HS (omitted in experiments run in the absence of human serum (HS)) 50%, VABSC-1 1 mM, BSA 0.2 mg/ml (in Bath-1), KCl 9 mM, DMSO 0.625%.
1) To reach the final concentration in each well, 375 nL of each compound was pre-spotted (in neat DMSO) into polypropylene compound plates at 240× desired final concentration from an intermediate stock concentration of 0.075 mM, in an 11 point dose response, 3-fold dilution, resulting in a top dose of 300 nM final concentration in the cell plate. Vehicle control (neat DMSO), and positive control (an established NaV1.8 inhibitor, 25 μM final in assay in DMSO) were added manually to the outermost columns of each plate respectively. The compound plate was backfilled with 45 μL per well of Compound Loading Buffer resulting in a 240 fold dilution of compound following a 1:1 transfer of compound into the cell plate (see Step 6). Final DMSO concentration for all wells in the assay was 0.625% (0.75% DMSO was supplemented to the Compound Loading Buffer for a final DMSO concentration of 0.625%). […]

Sequence of human NaV 1.8 (Q9Y5Y9 126-399 limits assumed): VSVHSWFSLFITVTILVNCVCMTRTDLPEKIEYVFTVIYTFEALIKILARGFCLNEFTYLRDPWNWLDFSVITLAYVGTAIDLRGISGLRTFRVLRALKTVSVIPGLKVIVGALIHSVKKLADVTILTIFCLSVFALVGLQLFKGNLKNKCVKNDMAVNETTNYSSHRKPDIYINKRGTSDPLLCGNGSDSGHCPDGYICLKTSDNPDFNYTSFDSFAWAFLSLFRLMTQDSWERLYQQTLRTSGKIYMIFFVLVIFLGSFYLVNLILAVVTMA
Sequence of human NaV 1.8 (Q9Y5Y9 660-890 limits assumed): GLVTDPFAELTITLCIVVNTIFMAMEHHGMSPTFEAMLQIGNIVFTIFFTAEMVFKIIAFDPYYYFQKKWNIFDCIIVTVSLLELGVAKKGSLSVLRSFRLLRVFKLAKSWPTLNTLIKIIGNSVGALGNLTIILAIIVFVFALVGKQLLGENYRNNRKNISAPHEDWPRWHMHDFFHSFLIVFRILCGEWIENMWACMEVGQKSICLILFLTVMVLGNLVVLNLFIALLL
Sequence of human NaV 1.8 (Q9Y5Y9 1148-1722 limits assumed): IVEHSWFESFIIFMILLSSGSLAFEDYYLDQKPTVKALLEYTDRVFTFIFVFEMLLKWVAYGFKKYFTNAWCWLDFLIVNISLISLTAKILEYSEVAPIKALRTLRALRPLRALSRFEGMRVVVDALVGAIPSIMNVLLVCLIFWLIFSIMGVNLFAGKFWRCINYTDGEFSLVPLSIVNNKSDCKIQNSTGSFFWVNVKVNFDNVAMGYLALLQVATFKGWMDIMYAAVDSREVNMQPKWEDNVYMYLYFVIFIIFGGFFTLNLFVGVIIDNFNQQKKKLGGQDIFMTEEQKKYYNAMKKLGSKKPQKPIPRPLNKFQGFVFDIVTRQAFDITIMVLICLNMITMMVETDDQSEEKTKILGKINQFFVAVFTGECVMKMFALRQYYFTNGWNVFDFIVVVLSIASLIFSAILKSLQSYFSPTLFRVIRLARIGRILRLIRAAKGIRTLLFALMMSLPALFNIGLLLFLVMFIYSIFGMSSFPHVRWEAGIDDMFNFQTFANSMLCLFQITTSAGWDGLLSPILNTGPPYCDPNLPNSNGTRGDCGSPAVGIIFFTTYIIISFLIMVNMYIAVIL

IC50 [µM]	SMILES
0.01 to 0.1	COc1c([C@H]2[C@H](C(=O)Nc3cncc(CO)c3)O[C@@](C)(C(F)(F)F)[C@H]2C)ccc(F)c1F [Compound 383, (2R,3S,4S,5R)-3-(3,4-difluoro-2-methoxyphenyl)-N-(5-(hydroxymethyl)pyridin-3-yl)-4,5-dimethyl-5-(trifluoromethyl)tetrahydrofuran-2-carboxamide]
< 0.01	COc1c([C@H]2[C@H](C(=O)Nc3ccnc(C4(N)CCOC4)c3)O[C@@](C)(C(F)(F)F)[C@H]2C)ccc(F)c1F (single isomer, unassigned) [Compound 346, rel-(2R*,3S*,4S*,5R*)-N-(2-(3-aminotetrahydrofuran-3-yl)pyridin-4-yl)-3-(3,4-difluoro-2-methoxyphenyl)-4,5-dimethyl-5-(trifluoromethyl)-tetrahydrofuran-2-carboxamide]
< 0.01	COc1c([C@H]2[C@H](C(=O)Nc3ccnc(C4(N(C)C)COC4)c3)O[C@@](C)(C(F)(F)F)[C@H]2C)ccc(F)c1F [Compound 362, (2R,3S,4S,5R)-3-(3,4-difluoro-2-methoxyphenyl)-N-(2-(3-(dimethylamino)oxetan-3-yl)pyridin-4-yl)-4,5-dimethyl-5-(trifluoromethyl)tetrahydrofuran-2-carboxamide]
< 0.01	COc1c(C2C(C(=O)Nc3ccnc(S(C)(=O)=O)c3)OC(C)(C(F)(F)F)C2C)ccc(F)c1F (single isomer, unassigned) [Compound 50, 3-(3,4-difluoro-2-methoxy-phenyl)-4,5-dimethyl-N-(2-methylsulfonyl-4-pyridyl)-5-(trifluoromethyl)tetrahydrofuran-2-carboxamide]
≥ 1	COc1c([C@@H]2[C@@H](C(=O)Nc3ccnc(S(=O)(=O)N(C)C)c3)O[C@](C)(C(F)(F)F)[C@@H]2C)ccc(F)c1F (stereo in doubt) [Compound 448, rel-(2S,3R,4R,5S)-3-(3,4-difluoro-2-methoxyphenyl)-N-(2-(N,N-dimethylsulfamoyl)pyridin-4-yl)-4,5-dimethyl-5-(trifluoromethyl)tetrahydrofuran-2-carboxamide]
0.1 to 1	COc1c(C2C(C(=O)Nc3ccnc(S(C)(=N)=O)c3)OC(C)(C(F)(F)F)C2C)ccc(F)c1F (single isomer, unassigned) [Compound 53, 3-(3,4-difluoro-2-methoxy-phenyl)-4,5-dimethyl-N-[2-(methylsulfonimidoyl)-4-pyridyl]-5-(trifluoromethyl)tetrahydrofuran-2-carboxamide]
< 0.01	CCOc1c([C@H]2[C@H](C(=O)Nc3ccnc(S(C)(=O)=O)c3)O[C@@](C)(C(F)(F)F)[C@H]2C)ccc(F)c1F (stereo in doubt) [Compound 108, rel-(2R,3S,4S,5R)-3-(2-ethoxy-3,4-difluorophenyl)-4,5-dimethyl-N-(2-(methylsulfonyl)pyridin-4-yl)-5-(trifluoromethyl)tetrahydrofuran-2-carboxamide]

The remaining lines, values behind:

SMILES	IC50 [µM]
COc1c([C@H]2[C@H](C(=O)Nc3ccc(-n4ccc(C)n4)nc3)O[C@@](C)(C(F)(F)F)[C@H]2C)ccc(F)c1F [Compound 395, (2R,3S,4S,5R)-3-(3,4-difluoro-2-methoxyphenyl)-4,5-dimethyl-N-(6-(3-methyl-1H-pyrazol-1-yl)pyridin-3-yl)-5-(trifluoromethyl)-tetrahydrofuran-2-carboxamide]	0.01 to 0.1
COc1c([C@H]2[C@H](C(=O)NCC3(C)CCOCC3)O[C@@](C)(C(F)(F)F)[C@H]2C)ccc(F)c1F [Compound 300, (2R,3S,4S,5R)-3-(3,4-difluoro-2-methoxyphenyl)-4,5-dimethyl-N-((4-methyltetrahydro-2H-pyran-4-yl)methyl)-5-(trifluoromethyl)tetrahydrofuran-2-carboxamide]	≥ 1
Cc1nocc1NC(=O)[C@@H]1O[C@@](C)(C(F)(F)F)[C@@H](C)[C@H]1c1ccc(F)c(F)c1OCCN[C@@H]1CCOC1 [Compound 632, (2R,3S,4S,5R)-3-(3,4-difluoro-2-(2-(((R)-tetrahydrofuran-3-yl)amino)ethoxy)phenyl)-4,5-dimethyl-N-(3-methylisoxazol-4-yl)-5-(trifluoromethyl)tetrahydrofuran-2-carboxamide]	0.01 to 0.1
Cc1ncc(NC(=O)[C@@H]2O[C@@](C)(C(F)(F)F)[C@@H](C)[C@H]2c2ccc(F)c(F)c2OCCO)cn1 [Compound 569, (2R,3S,4S,5R)-3-(3,4-difluoro-2-(2-hydroxyethoxy)phenyl)-4,5-dimethyl-N-(2-methylpyrimidin-5-yl)-5-(trifluoromethyl)tetrahydrofuran-2-carboxamide]	0.1 to 1
CN=S(C)(=O)c1ccc(NC(=O)[C@@H]2O[C@@](C)(C(F)(F)F)[C@@H](C)[C@H]2c2ccc(F)c(F)c2OC)cn1 (single isomer, unassigned) [Compound 338]	0.01 to 0.1
COc1c([C@H]2[C@H](C(=O)Nc3cc(CO)nn3C)O[C@@](C)(C(F)(F)F)[C@H]2C)ccc(F)c1F [Compound 20, (2R,3S,4S,5R)-3-(3,4-difluoro-2-methoxy-phenyl)-N-[5-(hydroxymethyl)-2-methyl-pyrazol-3-yl]-4,5-dimethyl-5-(trifluoromethyl)tetrahydrofuran-2-carboxamide]	0.01 to 0.1
COc1c([C@H]2[C@H](C(=O)Nc3ccc(C#CCO)nc3)O[C@@](C)(C(F)(F)F)[C@H]2C)ccc(F)c1F [Compound 403, (2R,3S,4S,5R)-3-(3,4-difluoro-2-methoxyphenyl)-N-(6-(3-hydroxyprop-1-yn-1-yl)pyridin-3-yl)-4,5-dimethyl-5-(trifluoromethyl)-tetrahydrofuran-2-carboxamide]	0.01 to 0.1
COc1c([C@H]2[C@H](C(=O)Nc3cc(S(C)(=O)=O)nn3C)O[C@@](C)(C(F)(F)F)[C@H]2C)ccc(F)c1F [Compound 211, (2R,3S,4S,5R)-3-(3,4-difluoro-2-methoxyphenyl)-4,5-dimethyl-N-(1-methyl-3-(methylsulfonyl)-1H-pyrazol-5-yl)-5-(trifluoromethyl)tetrahydrofuran-2-carboxamide]	< 0.01
COc1c([C@H]2[C@H](C(=O)Nc3cc(C(O)CCO)ncc3F)O[C@@](C)(C(F)(F)F)[C@H]2C)ccc(F)c1F (single isomer, unassigned) [Compound 256, rel-(2R*,3S*,4S*,5R*)-3-(3,4-difluoro-2-methoxyphenyl)-N-(2-(1,3-dihydroxypropyl)-5-fluoropyridin-4-yl)-4,5-dimethyl-5-(trifluoromethyl)tetrahydrofuran-2-carboxamide]	< 0.01
C[C@H]1[C@@H](c2ccc(F)c(F)c2O)[C@H](C(=O)Nc2ccnc(CO)c2)O[C@@]1(C)C(F)(F)F [Compound 638, (2R,3S,4S,5R)-3-(3,4-difluoro-2-hydroxyphenyl)-N-(2-(hydroxymethyl)pyridin-4-yl)-4,5-dimethyl-5-(trifluoromethyl)tetrahydrofuran-2-carboxamide]	0.01 to 0.1
Cc1oncc1NC(=O)[C@@H]1O[C@@](C)(C(F)(F)F)[C@@H](C)[C@H]1c1ccc(F)c(F)c1OCCO [Compound 559, (2R,3S,4S,5R)-3-(3,4-difluoro-2-(2-hydroxyethoxy)phenyl)-4,5-dimethyl-N-(5-methylisoxazol-4-yl)-5-(trifluoromethyl)tetrahydrofuran-2-carboxamide]	0.01 to 0.1
